Calls of active or inactive are those of the source. No cut-off for these calls is given here.
Key:
Candida albicans [1] = assay: Antifungal activity against histatin-resistant Candida albicans CAHR1 at 0.2 mg/mL measured after storage at -80 degC for 1 year; format: functional
Candida albicans [2] = assay: Antifungal activity against histatin-resistant Candida albicans CAHR4 at 0.2 mg/mL measured after storage at -80 degC for 1 year; format: functional
Candida albicans [3] = assay: Antifungal activity against histatin-susceptible Candida albicans CA132A at 0.2 mg/mL; format: functional
Candida albicans [4] = assay: Antifungal activity against histatin-resistant Candida albicans CAHR04A at 0.2 mg/mL; format: functional
Candida albicans [5] = assay: Antifungal activity against histatin-resistant Candida albicans CAHR04B at 0.2 mg/mL; format: functional
Candida albicans [6] = assay: Antifungal activity against histatin-resistant Candida albicans CAHR04U at 0.2 mg/mL; format: functional
Candida albicans [7] = assay: Reduction of TRK1 gene expression in histatin-resistant Candida albicans CAHR04A; format: functional
Candida albicans [8] = assay: Reduction of TRK1 gene expression in histatin-resistant Candida albicans CAHR04B; format: functional
Candida albicans [9] = assay: Reduction of ATP release in histatin-resistant Candida albicans CAHR04A at 0.2 mg/mL after 45 mins
Candida albicans [10] = assay: Reduction of ATP release in histatin-resistant Candida albicans CAHR04B at 0.2 mg/mL after 45 mins
Candida albicans [11] = assay: Reduction of ATP release in histatin-resistant Candida albicans CAHR04U at 0.2 mg/mL after 45 mins

`CC(C)C[C@H](NC(=O)[C@H](Cc1ccc(O)cc1)NC(=O)[C@H](CC(N)=O)NC(=O)[C@H](CO)NC(=O)[C@H](CCCNC(=N)N)NC(=O)[C@H](Cc1ccc(O)cc1)NC(=O)CNC(=O)[C@H](CCCNC(=N)N)NC(=O)[C@H](Cc1cnc[nH]1)NC(=O)[C@H](CO)NC(=O)[C@H](Cc1cnc[nH]1)NC(=O)[C@H](Cc1cnc[nH]1)NC(=O)[C@H](CCCCN)NC(=O)[C@H](CCC(=O)O)NC(=O)[C@H](Cc1cnc[nH]1)NC(=O)[C@H](Cc1ccccc1)NC(=O)[C@H](CCCCN)NC(=O)[C@H](CCCNC(=N)N)NC(=O)[C@H](CCCCN)NC(=O)[C@H](Cc1ccc(O)cc1)NC(=O)CNC(=O)[C@H](Cc1cnc[nH]1)NC(=O)[C@H](Cc1cnc[nH]1)NC(=O)[C@H](CCCNC(=N)N)NC(=O)[C@H](CCCCN)NC(=O)[C@H](C)NC(=O)[C@H](Cc1cnc[nH]1)NC(=O)[C@H](CO)NC(=O)[C@@H](N)CC(=O)O)C(=O)N[C@@H](Cc1ccc(O)cc1)C(=O)N[C@@H](CC(=O)O)C(=O)N[C@@H](CC(N)=O)C(=O)O` [Histatin 3] gave an Activity (Candida albicans [1]) of 86.4%, an Activity (Candida albicans [2]) of 94.4% and an Activity (Candida albicans [3]) of 91.7%. The Activity (Candida albicans [4]) was 17.9%, the Activity (Candida albicans [5]) was 17.9% and the Activity (Candida albicans [6]) was 17.9%. For the same molecule, the Activity (Candida albicans [7]) was “Active”, the “fold change (FC)” value (Candida albicans [7]) was 2 and the “fold change (FC)” value (Candida albicans [8]) was 1.6. For the same molecule, the Activity (Candida albicans [9]) was “Active”, the Activity (Candida albicans [10]) was “Active” and the Activity (Candida albicans [11]) was “Active”.

From ChEMBL document CHEMBL1155140, “Differentially expressed proteins in derivatives of Candida albicans displaying a stable histatin 3-resistant phenotype” (2007)
